The assay has as its system Female beagle dogs. Briefly: dog urethral pressure profilometry (Test A). The note with it: anaesthetised female beagle dog; for Mean peak urethral pressure (PUP): i.v. infusion over 15 minutes in saline; for PUP increase vs. baseline: i.v. infusion over 15 minutes, baseline (vehicle) PUP 30 mmHg. It is filed as in vivo. The procedure: Female beagle dogs (10-15 kg) are anaesthetised with sodium pentobarbitone (60 mg/mL solution) administered intravenously (IV) at 0.5 ml/kg via the right cephalic vein. Immediately following induction of anaesthesia the dog is intubated and respiration supported by artificial ventilation with oxygen. End tidal CO2 is monitored continuously, using a Datex CO2/O2 monitor and maintained between 4.5 and 4.8% and body temperature maintained between 37° C. and 38° C. An incision is made in the right medial thigh and a polyethylene catheter (6F) inserted into the right femoral vein for administration of compounds and fluid maintenance; immediately venous access is achieved a bolus IV dose of α-chloralose (1% w/v) is administered at 35 mg/kg. A polyethylene catheter (4F) is inserted into the right femoral artery for blood sampling. An incision is made in the right foreleg and the brachial vein and artery isolated, maintenance of anaesthesia is achieved with α-chloralose/borax administered IV at the rate of 10 mg/kg/h via a polyethylene catheter (6F) inserted into the right brachial vein. A laparotomy is performed from the umbilicus to the top of the pubic symphysis via the midline to expose the peritoneum in order to expose the bladder. Both ureters are cannulated towards the kidneys with polyethylene catheters (6F) and urine collected externally; the bladder is catheterised through the dome with a polyethylene catheter (6F), which is in turn connected to a pressure transducer. In order to maintain constant bladder pressure at 10-15 mmHg, urine is removed and ambient temperature saline infused into the bladder. Immediately following the completion of the surgical procedures a further bolus dose of α-chloralose/borax solution is administered IV at 35 mg/kg and the animal allowed to stabilise for a period period ca. 1 hr, during which time haemodynamic and urological parameters were monitored.
Urethral tone (peak urethral pressure (PUP), functional urethral length (FUL) and closing pressure (CP)) is assessed with the aid of an 8F Millar pressure transducer (Millar Instruments, Texas, US) inserted into the bladder through the external meatus. The urethral Millar pressure transducer is then retracted along the length of the urethra (urethral pull through) at a rate of 1 cm/min enabling the determination of PUP, FUL and CP. Urethral pull throughs are repeated every 6 min until at least 4 reproducible urethral profiles are observed. Subsequently increasing concentrations of test compound or vehicle is injected intravenously utilising either a bolus dose or constant infusion and at least a further 4 urethral pull throughs carried out at each concentration investigated. Changes in the PUP, FUL or CP are indicative of compound activity on lower urinary tract function. • Investigation of bladder capacity and external urethral sphincter (EUS) function in the spontaneously hypertensive rat:
was tested in the dog urethral pressure model (Test A) described above. The compound was dissolved in saline (vehicle) and administered by i.v. infusion over a period of 15 minutes, with at least 5 urethral pressure measurements being taken at each dose level during infusion and for 15 minutes post-infusion.

Take `CO[C@H]1CN(C(=O)[C@@H]2CN(c3cccnn3)C[C@H]2c2ccc(F)cc2F)CC[C@]1(OC)c1ccccc1` [Example 8]: the “Mean peak urethral pressure (PUP)” value reads like this: (dose 1.0 mg/kg) 32 mmHg; (dose 2.0 mg/kg) 36 mmHg; (dose 3.0 mg/kg) 35 mmHg. For the same compound, the “PUP increase vs. baseline” value reads like this: (dose 1.0 mg/kg) 7%; (dose 2.0 mg/kg) 20%; (dose 3.0 mg/kg) 17%.

The values are drawn from patent US20080234280A1, “Use of Mc4 Receptor Agonist Compounds” (priority 2005, published 2008).
